Common to all, as to assay: NCI-60 cell line screen, 48 h
In assay [1] the test system is HOP-92.
Assay [2] has as its system CAKI-1.
The test system of assay [3] is UO-31.
Assay [4] has as its system NCI-H226.
Assay [5] relates to A549.
The subject of assay [6] is KM12.
Assay [7] relates to NCI/ADR-RES.
Assay [8] deals with EKVX.
Assay [9] relates to IGROV-1.
Assay [10] concerns SW-620.
Assay [11] has as its system SK-MEL-2.
Assay [12] concerns MCF7.
Assay [13] deals with Hs-578T.
For assay [14], the system named is UACC-62.
In assay [15] the test system is A498.
Assay [16] has as its system DU-145.
In assay [17] the test system is HT-29.
Assay [18] concerns Malme-3M.
The test system of assay [19] is NCI-H522.
Assay [20] deals with OVCAR-4.

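Where inhibition never reached the appropriate level, the endpoint shown equals the highest concentration tested. Otherwise, values were interpolated linearly from a five-concentration, 48-hour dose response in 96-well plates. Here, GI50 denotes the concentration required for 50% inhibition of growth.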 Active and inactive are the calls of the source. Rule as the data show it: active = GI50 up to about 1.1 µM and inactive = higher. Where only a bound is given, the exact number is not on record here.

As to `C=CCOc1ccc(C2(O)c3ccccc3C3=NCCCN32)cc1` (stereo not given), the GI50 in assay [1] is 43.6 µM (inactive); in [2] it was > 62.8 µM (inactive); in assay [3], 51.8 µM (inactive); in assay [4] it was > 77.1 µM (inactive); in assay [5], 55.3 µM (inactive); in assay [6], 44.5 µM (inactive). In addition, the GI50 in assay [7] was > 100 µM (inactive); in assay [8], 80.5 µM (inactive); in [9], 28.6 µM (inactive); in assay [10], 44 µM (inactive); in assay [11], 20.3 µM (inactive); in [12] it was 43.7 µM (inactive). The GI50 was > 73.8 µM (inactive) in assay [13]; 25.7 µM (inactive) in assay [14]; > 100 µM (inactive) in [15]; > 100 µM (inactive) in [16]; > 65.9 µM (inactive) in [17]; 12.3 µM (inactive) in assay [18]. Further, the GI50 was 21.2 µM (inactive) in assay [19] and > 71 µM (inactive) in assay [20].
On to `CC(=O)c1c2n(n(-c3ccccc3)c1=O)C(=O)c1nccnc1-2`, for which the GI50 in assay [1], in [2], in assay [3], in [4], in assay [5] and in [6] was > 100 µM (inactive) throughout. The GI50 in assay [7], in assay [8], in assay [9], in [10], in [11] and in assay [12] was > 100 µM (inactive) each time. Further, the GI50 in assay [13], in [14], in assay [15], in [16], in assay [17] and in assay [18] was > 100 µM (inactive) each time. Besides, the GI50 in [19] and in assay [20] was > 100 µM (inactive) throughout.
As to `CCCCCCc1cc2cc(C(=O)Nc3ccccc3)c(=N)oc2cc1O`, the GI50 is 3.25 µM (inactive) in [1]; 4.58 µM (inactive) in assay [2]; 2.82 µM (inactive) in [3]; > 25.6 µM (inactive) in assay [4]; 3.27 µM (inactive) in assay [5]; 2.51 µM (inactive) in [6]. For the same compound, the GI50 in assay [7] is 3.27 µM (inactive); in assay [8], 3.29 µM (inactive); in assay [9] it was 2.92 µM (inactive); in assay [10] it was 3.97 µM (inactive); in [11] it was 2.45 µM (inactive); in assay [12] it was 4.35 µM (inactive). The GI50 in [13] was 3.21 µM (inactive); in assay [14] it was 2.26 µM (inactive); in assay [15], 26.2 µM (inactive); in assay [16], 4.82 µM (inactive); in assay [17], 3.28 µM (inactive); in assay [18], 1.98 µM (inactive). Also, the figures for the GI50 in [19] and in assay [20] were 1.94 µM (inactive) and 4.13 µM (inactive), respectively.
As to `COc1cc([C@@H]2c3cc4c(cc3[C@@H](OC3OC5CO[C@@H](c6cccs6)OC5C(O)C3O)[C@H]3COC(=O)[C@H]23)OCO4)cc(OC)c1O` (stereo not given in full), the GI50 in assay [1] was 0.132 µM (active); in assay [2], 0.0733 µM (active); in [3], 4.35 µM (inactive); in [4], 0.32 µM (active); in [5], 0.144 µM (active); in assay [6] it was 0.753 µM (active). Further, the GI50 in assay [7] is 23.4 µM (inactive); in [8], 1.3 µM (inactive); in assay [9], 1.7 µM (inactive); in assay [10], 0.24 µM (active); in assay [11], 1.09 µM (active); in assay [12], 0.038 µM (active). In addition, the GI50 in [13] is 0.42 µM (active); in assay [14] it was 0.183 µM (active); in assay [15] it was 0.394 µM (active); in assay [16], 0.324 µM (active); in [17], 1.61 µM (inactive); in [18], 0.656 µM (active). Also, the values for the GI50 in [19] and in [20] were 0.482 µM (active) and 5.12 µM (inactive), respectively.
As to `Cc1ccc(-c2n[nH]c(=O)n2N)cc1`, the GI50 in [1], in [2], in assay [3], in [4], in assay [5] and in assay [6] was > 100 µM (inactive) in each case. In addition, the GI50 in assay [7], in assay [8], in [9], in assay [10], in assay [11] and in assay [12] was > 100 µM (inactive) in each case. The GI50 in [13], in assay [14], in assay [15], in [16], in assay [17] and in assay [18] was > 100 µM (inactive) throughout. The GI50 in [19] and in assay [20] was > 100 µM (inactive) throughout.
With `Oc1nc(S)nc2c1C(c1ccc(Cl)cc1)c1c(O)nc(S)nc1O2`, the GI50 was > 100 µM (inactive) in assay [1]; 25.8 µM (inactive) in assay [2]; > 100 µM (inactive) in assay [3]; > 100 µM (inactive) in [4]; > 100 µM (inactive) in assay [5]; > 100 µM (inactive) in [6]. Further, the GI50 in assay [7], in assay [8], in assay [9], in [10], in assay [11] and in assay [12] was > 100 µM (inactive) throughout. For the same compound, the GI50 in assay [13], in assay [14], in [15], in [16], in [17] and in assay [18] was > 100 µM (inactive) throughout. For the same compound, the GI50 in assay [19] and in assay [20] was > 100 µM (inactive) each time.
Consider `Cc1nc2sc(C(=O)c3ccc(Cl)cc3)c(N)c2c(-c2ccccc2Cl)c1C(=O)Nc1ccccc1`, for which the GI50 in assay [1] is 3.08 µM (inactive); in assay [2], 12 µM (inactive); in [3] it was 17.3 µM (inactive); in assay [4] it was 17.7 µM (inactive); in assay [5], 9.06 µM (inactive); in assay [6], 18.5 µM (inactive). Besides, the GI50 in [7] was 19.5 µM (inactive); in [8] it was 21.9 µM (inactive); in assay [9] it was 19 µM (inactive); in assay [10], 6.22 µM (inactive); in assay [11], 3.08 µM (inactive); in assay [12] it was 15.2 µM (inactive). Further, the GI50 in assay [13] was 20.1 µM (inactive); in assay [14], 13.6 µM (inactive); in assay [15] it was 21.3 µM (inactive); in assay [16], 19.1 µM (inactive); in assay [17], 12.2 µM (inactive); in assay [18], 13 µM (inactive). The GI50 is 5.51 µM (inactive) in assay [19] and 16.5 µM (inactive) in [20].
